According to EP0973746B1, “SUBSTITUTED 3-CYANO QUINOLINES” (Wyeth Holdings Corporation, priority 1997, dated 1998):
pIC50: −log10 of the molar value. ≈ marks a conversion by molar mass, not a printed value.

tested on: PC3; assay: Inhibition of cancer cell growth as measured by cell number, PC3; type: cell-based; details: Homo sapiens, PC-3, 48 h, read-out: IC50 PC3

Question: Which IC50 does the source give for `COc1cc2ncc(C#N)c(Nc3cccc(Br)c3)c2cc1[N+](=O)[O-]` [Example 6] here?
Answer: The IC50 was 4.69 µg/mL (≈ 11.7 µM).

tested on: A27805; assay: Inhibition of cancer cell growth as measured by cell number, A27805; type: cell-based; details: Homo sapiens, 48 h, read-out: IC50 A27805

Question: For `COc1cc2ncc(C#N)c(Nc3cccc(Br)c3)c2cc1[N+](=O)[O-]` [Example 6], which IC50 is on record?
Answer: Its IC50 is 2.49 µg/mL (≈ 6.23 µM).

tested on: LX1; assay: Inhibition of cancer cell growth as measured by cell number, LX1; type: cell-based; details: Homo sapiens, LX-1, 48 h, read-out: IC50 LX1

Question: Which IC50 does the source give for `COc1cc2ncc(C#N)c(Nc3cccc(Br)c3)c2cc1[N+](=O)[O-]` [Example 6] here?
Answer: The IC50 was 5.55 µg/mL (≈ 13.9 µM).

tested on: SW948; assay: Inhibition of cancer cell growth as measured by cell number, SW948; type: cell-based; details: Homo sapiens, SW948, 48 h, read-out: IC50 SW948

Question: With `COc1cc2ncc(C#N)c(Nc3cccc(Br)c3)c2cc1[N+](=O)[O-]` [Example 6] as the molecule, how does the IC50 read?
Answer: Its IC50 is 5.2 µg/mL (≈ 13 µM).

tested on: B7474; assay: Inhibition of cancer cell growth as measured by cell number, B7474; type: cell-based; details: Homo sapiens, 48 h, read-out: IC50 B7474

Question: For `COc1cc2ncc(C#N)c(Nc3cccc(Br)c3)c2cc1[N+](=O)[O-]` [Example 6], which IC50 is on record?
Answer: The IC50 was 3.76 µg/mL (≈ 9.41 µM).

tested on: T47D; assay: Inhibition of cancer cell growth as measured by cell number, T47D; type: cell-based; details: Homo sapiens, 48 h, read-out: IC50 T47D

Question: For `COc1cc2ncc(C#N)c(Nc3cccc(Br)c3)c2cc1[N+](=O)[O-]` [Example 6], which IC50 is on record?
Answer: Its IC50 is 3.26 µg/mL (≈ 8.18 µM).

tested on: CCL228; assay: Inhibition of cancer cell growth as measured by cell number, CCL228; type: cell-based; details: Homo sapiens, 48 h, read-out: IC50 CCL228

Question: For `COc1cc2ncc(C#N)c(Nc3cccc(Br)c3)c2cc1[N+](=O)[O-]` [Example 6], which IC50 is on record?
Answer: Its IC50 is 2.35 µg/mL (≈ 5.88 µM).

tested on: A549; assay: Inhibition of cancer cell growth as measured by cell number, A549; type: cell-based; details: Homo sapiens, A549, 48 h, read-out: IC50 A549

Question: How did the IC50 turn out when `COc1cc2ncc(C#N)c(Nc3cccc(Br)c3)c2cc1[N+](=O)[O-]` [Example 6] was run?
Answer: Its IC50 is 4.45 µg/mL (≈ 11.1 µM).

tested on: LNCAP; assay: Inhibition of cancer cell growth as measured by cell number, LNCAP; type: cell-based; details: Homo sapiens, 48 h, read-out: IC50 LNCAP

Question: For `COc1cc2ncc(C#N)c(Nc3cccc(Br)c3)c2cc1[N+](=O)[O-]` [Example 6], which IC50 is on record?
Answer: The IC50 was 4.19 µg/mL (≈ 10.5 µM).

tested on: SKBR3; assay: Inhibition of cancer cell growth as measured by cell number, SKBR3; type: cell-based, human; details: Homo sapiens, SK-BR-3, 48 h, read-out: IC50 SKBR3, cell number, Sulforhodamine B, 48 hours exposure; Table 7;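 further: SK-BR-3 cells were selected as a line overexpressing HER2/neu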
Text: (§1) The cell lines were chosen since they overexpressed epidermal growth factor receptor (EGFR) (i.e. A431) or HER2/neu (SKBR3), or had little to no expression of the these receptors (SW620, LOX, MCF7).

Question: For `COc1cc2ncc(C#N)c(Nc3cccc(Br)c3)c2cc1[N+](=O)[O-]` [Example 6], which IC50 is on record?
Answer: The IC50 was 4.2 µg/mL (≈ 10.5 µM).

tested on: A2780DDP; assay: Inhibition of cancer cell growth as measured by cell number, A2780DDP; type: cell-based; details: Homo sapiens, 48 h, read-out: IC50 A2780DDP

Question: Which IC50 does the source give for `COc1cc2ncc(C#N)c(Nc3cccc(Br)c3)c2cc1[N+](=O)[O-]` [Example 6] here?
Answer: The IC50 was 3.22 µg/mL (≈ 8.06 µM).

tested on: NEC; assay: Inhibition of cancer cell growth as measured by cell number, NEC; type: cell-based; details: Homo sapiens, 48 h, read-out: IC50 NEC

Question: For `COc1cc2ncc(C#N)c(Nc3cccc(Br)c3)c2cc1[N+](=O)[O-]` [Example 6], which IC50 is on record?
Answer: Its IC50 is 4.17 µg/mL (≈ 10.4 µM).

tested on: CX1; assay: Inhibition of cancer cell growth as measured by cell number, CX1; type: cell-based; details: Homo sapiens, CX-1, 48 h, read-out: IC50 CX1

Question: Which IC50 does the source give for `COc1cc2ncc(C#N)c(Nc3cccc(Br)c3)c2cc1[N+](=O)[O-]` [Example 6] here?
Answer: Its IC50 is 3.02 µg/mL (≈ 7.58 µM).

tested on: LS174T; assay: Inhibition of cancer cell growth as measured by cell number, LS174T; type: cell-based; details: Homo sapiens, 48 h, read-out: IC50 LS174T

Question: With `COc1cc2ncc(C#N)c(Nc3cccc(Br)c3)c2cc1[N+](=O)[O-]` [Example 6] as the molecule, how does the IC50 read?
Answer: The IC50 was 2.67 µg/mL (≈ 6.7 µM).

tested on: CACO2; assay: Inhibition of cancer cell growth as measured by cell number, CACO2; type: cell-based; details: Homo sapiens, Caco-2, 48 h, read-out: IC50 CACO2

Question: `COc1cc2ncc(C#N)c(Nc3cccc(Br)c3)c2cc1[N+](=O)[O-]` [Example 6] was tested. Which IC50 did it give?
Answer: The IC50 was 0.808 µg/mL (≈ 2.02 µM).

tested on: A431; assay: Inhibition of cancer cell growth as measured by cell number, A431; type: cell-based, human; details: Homo sapiens, A-431, 48 h, read-out: IC50 A431, cell number, Sulforhodamine B, 48 hours exposure; Table 6;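 further: human A431 line, picked because it overexpresses epidermal growth factor receptor (EGFR)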
Text: as §1

Question: For `COc1cc2ncc(C#N)c(Nc3cccc(Br)c3)c2cc1[N+](=O)[O-]` [Example 6], which IC50 is on record?
Answer: The IC50 was 0.845 µg/mL (≈ 2.12 µM).

tested on: HTB161; assay: Inhibition of cancer cell growth as measured by cell number, HTB161; type: cell-based; details: Homo sapiens, 48 h, read-out: IC50 HTB161

Question: Which IC50 does the source give for `COc1cc2ncc(C#N)c(Nc3cccc(Br)c3)c2cc1[N+](=O)[O-]` [Example 6] here?
Answer: Its IC50 is 1.66 µg/mL (≈ 4.15 µM).

tested on: HCT15; assay: Inhibition of cancer cell growth as measured by cell number, HCT15; type: cell-based; details: Homo sapiens, HCT-15, 48 h, read-out: IC50 HCT15

Question: `COc1cc2ncc(C#N)c(Nc3cccc(Br)c3)c2cc1[N+](=O)[O-]` [Example 6] was tested. Which IC50 did it give?
Answer: The IC50 was 1.75 µg/mL (≈ 4.38 µM).

biological target: recombinant human MEK 1 (MAPKK) and recombinant human ERK2 (MAPK); assay: Mitogen Activated Protein Kinase (MAPK) assay, two component coupled MEK 1 / ERK2; type: biochemical; details: separate entries for the same compound = evaluated more than one time;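 further: MEK 1-activated ERK2 phosphorylates MBP or Myc peptide with 33P-ATP, filter capture and scintillation counting, inhibitor preincubated with ERK2 30 min at 0 °C, inhibition relative to uninhibited control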

Question: `COc1cc2ncc(C#N)c(Nc3cccc(Br)c3)c2cc1[N+](=O)[O-]` [Example 6] was tested. Which pIC50 did it give?
Answer: Its pIC50 is less than 4.00.

tested on: DU145; assay: Inhibition of cancer cell growth as measured by cell number, DU145; type: cell-based; details: Homo sapiens, DU-145, 48 h, read-out: IC50 DU145

Question: How did the IC50 turn out when `COc1cc2ncc(C#N)c(Nc3cccc(Br)c3)c2cc1[N+](=O)[O-]` [Example 6] was run?
Answer: Its IC50 is 1.03 µg/mL (≈ 2.59 µM).

tested on: HL60; assay: Inhibition of cancer cell growth as measured by cell number, HL60; type: cell-based; details: Homo sapiens, HL-60, 48 h, read-out: IC50 HL60

Question: With `COc1cc2ncc(C#N)c(Nc3cccc(Br)c3)c2cc1[N+](=O)[O-]` [Example 6] as the molecule, how does the IC50 read?
Answer: Its IC50 is 0.947 µg/mL (≈ 2.37 µM).

tested on: MCF7; assay: Inhibition of cancer cell growth as measured by cell number, MCF7; type: cell-based, human; details: Homo sapiens, MCF7, 48 h, read-out: IC50 MCF7, cell number, Sulforhodamine B, 48 hours exposure; Table 5;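 further: MCF7 was included as a line with little or no EGFR or HER2/neu expression, in contrast to the receptor-overexpressing lines of the panel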
Text: as §1

Question: How did the IC50 turn out when `COc1cc2ncc(C#N)c(Nc3cccc(Br)c3)c2cc1[N+](=O)[O-]` [Example 6] was run?
Answer: The IC50 was 4.27 µg/mL (≈ 10.7 µM).

tested on: LOX; assay: Inhibition of cancer cell growth as measured by cell number, LOX; type: cell-based, human; details: Homo sapiens, LOX, 48 h, read-out: IC50 LOX, cell number, Sulforhodamine B, 48 hours exposure; Table 6;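 further: LOX cells served as a line with low or absent EGFR and HER2/neu expression, in contrast to receptor-overexpressing lines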
Text: as §1

Question: Which IC50 does the source give for `COc1cc2ncc(C#N)c(Nc3cccc(Br)c3)c2cc1[N+](=O)[O-]` [Example 6] here?
Answer: Its IC50 is 0.813 µg/mL (≈ 2.04 µM).

tested on: MIP; assay: Inhibition of cancer cell growth as measured by cell number, MIP; type: cell-based; details: Homo sapiens; cell number, Sulforhodamine B, 48 hours exposure; Table 4; read-out: IC50 MIP

Question: `COc1cc2ncc(C#N)c(Nc3cccc(Br)c3)c2cc1[N+](=O)[O-]` [Example 6] was tested. Which IC50 did it give?
Answer: Its IC50 is 0.95 µg/mL (≈ 2.38 µM).

tested on: CCRF-CFM; assay: Inhibition of cancer cell growth as measured by cell number, CCRF-CFM; type: cell-based; details: Homo sapiens, 48 h, read-out: IC50 CCRF-CFM

Question: How did the IC50 turn out when `COc1cc2ncc(C#N)c(Nc3cccc(Br)c3)c2cc1[N+](=O)[O-]` [Example 6] was run?
Answer: Its IC50 is 2.57 µg/mL (≈ 6.44 µM).

tested on: SW620; assay: Inhibition of cancer cell growth as measured by cell number, SW620; type: cell-based, human; details: Homo sapiens, SW-620, 48 h, read-out: IC50 SW620, cell number, Sulforhodamine B, 48 hours exposure; Table 4;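 further: SW620 was included as a cell line with little or no EGFR or HER2/neu expression, in contrast to receptor-overexpressing lines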
Text: as §1

Question: Which IC50 does the source give for `COc1cc2ncc(C#N)c(Nc3cccc(Br)c3)c2cc1[N+](=O)[O-]` [Example 6] here?
Answer: The IC50 was 4.71 µg/mL (≈ 11.8 µM).

tested on: COLO205; assay: Inhibition of cancer cell growth as measured by cell number, COLO205; type: cell-based; details: Homo sapiens, COLO 205, 48 h, read-out: IC50 COLO205

Question: With `COc1cc2ncc(C#N)c(Nc3cccc(Br)c3)c2cc1[N+](=O)[O-]` [Example 6] as the molecule, how does the IC50 read?
Answer: Its IC50 is 5.51 µg/mL (≈ 13.8 µM).
